Experimental data as given in patent publication US4820695A, “C-20-dihydro-deoxy-(cyclic amino)-derivatives of macrolide antibiotics” (priority 1987, dated 1989).
Values after ≈ are worked out from the molar mass of the structure shown. Where two headings read alike, the source gives them in different places.

How the values were obtained:
[1] = tested on: Staphylococcus epidermidis EPI1; assay: MIC, standard agar-dilution assay (Table IX); assay type: cell-based; conditions: Staphylococcus epidermidis EPI1; agar-dilution; read-out: MIC
Escherichia coli N10 = assay: MIC, standard agar-dilution assay (Table IX); assay type: cell-based; conditions: read-out: MIC
[2] = tested on: Streptococcus pneumoniae Park I; assay: MIC, standard agar-dilution assay (Table IX); assay type: cell-based; conditions: Streptococcus pneumoniae Park I; agar-dilution; read-out: MIC
Klebsiella X26 = assay: MIC, standard agar-dilution assay (Table IX); assay type: cell-based; conditions: read-out: MIC
[3] = tested on: Streptococcus Group D X66; assay: MIC, standard agar-dilution assay (Table IX); assay type: cell-based; conditions: read-out: MIC
[4] = tested on: Staphylococcus aureus V41; assay: MIC, standard agar-dilution assay (Table IX); assay type: cell-based; conditions: Staphylococcus aureus V41, Penicillin-resistant strain, read-out: MIC
[5] = Titratable groups in 66% aqueous DMF (Tables XIV-XVI); assay type: physicochemical
From the text: ^c Run in 66% aqueous DMF
^d Run in 66% aqueous DMF

Staphyloccus aureus X1.1 = assay: MIC, standard agar-dilution assay (Table IX); assay type: cell-based, Staphylococcus aureus; conditions: Staphylococcus aureus, read-out: MIC
[6] = tested on: Haemophilus influenzae C.L.; assay: MIC, standard agar-dilution assay (Table IX); assay type: cell-based; conditions: Ampicillin-sensitive strain, read-out: MIC
[7] = tested on: Staphylococcus aureus X400; assay: MIC, standard agar-dilution assay (Table IX); assay type: cell-based; conditions: Staphylococcus aureus X400, Methicillin-resistant strain, read-out: MIC
[8] = tested on: Haemophilus influenzae 76; assay: MIC, standard agar-dilution assay (Table IX); assay type: cell-based; conditions: Haemophilus influenzae 76, Ampicillin-resistant strain, read-out: MIC
[9] = tested on: Staphylococcus aureus S13E; assay: MIC, standard agar-dilution assay (Table IX); assay type: cell-based; conditions: Staphylococcus aureus, S13E
[10] = tested on: Staphylococcus epidermidis 222; assay: MIC, standard agar-dilution assay (Table IX); assay type: cell-based; conditions: read-out: MIC
Escherichia coli EC14 = assay: MIC, standard agar-dilution assay (Table IX); assay type: cell-based; conditions: read-out: MIC
Escherichia coli TEM = assay: MIC, standard agar-dilution assay (Table IX); assay type: cell-based; conditions: read-out: MIC
[11] = tested on: Streptococcus pyogenes C203; assay: MIC, standard agar-dilution assay (Table IX); assay type: cell-based; conditions: read-out: MIC
[12] = tested on: Streptococcus Group D 2041; assay: MIC, standard agar-dilution assay (Table IX); assay type: cell-based; conditions: GROUPD2041, read-out: MIC
Mycoplasma hyorhinis 29E = assay: MIC, broth-dilution microtiter test (Table X); assay type: cell-based; conditions: read-out: MIC
From the text: (§1) The MIC's in Table X were obtained using conventional broth-dilution microtiter tests.

[13] = tested on: Mycoplasma hyopneumoniae S5972; assay: MIC, broth-dilution microtiter test (Table X); assay type: cell-based; conditions: Mesomycoplasma hyopneumoniae, read-out: MIC
From the text: as §1

Mycoplasma synoviae 40A = assay: MIC, broth-dilution microtiter test (Table X); assay type: cell-based; conditions: Mycoplasmopsis synoviae, read-out: MIC
From the text: as §1

Streptococcus sp. 19F = assay: MIC, broth-dilution microtiter test (Table X); assay type: cell-based; conditions: read-out: MIC
From the text: as §1

[14] = tested on: Pasteurella multocida 17E; assay: MIC, broth-dilution microtiter test (Table X); assay type: cell-based; conditions: Bovine isolate, read-out: MIC
From the text: as §1

[15] = tested on: Pasteurella multocida 60A; assay: MIC, broth-dilution microtiter test (Table X); assay type: cell-based; conditions: Avian isolate, read-out: MIC
From the text: as §1

[16] = tested on: Mycoplasma gallisepticum 29C; assay: MIC, broth-dilution microtiter test (Table X); assay type: cell-based; conditions: Mycoplasmoides gallisepticum, read-out: MIC
From the text: as §1

[17] = tested on: Pasteurella hemolytica 22C; assay: MIC, broth-dilution microtiter test (Table X); assay type: cell-based; conditions: read-out: MIC
From the text: as §1

Staphylococcus aureus = assay: MIC, broth-dilution microtiter test (Table X); assay type: cell-based; conditions: read-out: MIC
From the text: as §1

[18] = tested on: Streptococcus pyogenes C203; assay: ED50 in mice experimentally infected with S. pyogenes C203 (Table XI); assay type: in vivo; conditions: Streptococcus pyogenes, doses given 1 and 4 hours postinfection, read-out: ED50
Description: The C-20 modified derivatives of this invention have shown in vivo antimicrobial activity against experimentally-induced infections in laboratory animals. When two doses of test compound were administered to mice experimentally infected with S. pyogenes C203, the activity observed was measured as an ED50 value [effective dose in mg/kg to protect 50% of the test animals: see Warren Wick, et al., J. Bacteriol. 81, 233-235 (1961)].
^a mg/kg × 2; doses given 1 and 4 hours postinfection

[19] = Titratable groups (first value)

Structure (SMILES)	MIC [1]	MIC (Escherichia coli N10)	MIC [2]	MIC (Klebsiella X26)	MIC [3]	MIC [4]	MIC (Staphyloccus aureus X1.1)	MIC [6]	MIC [7]	MIC [8]	MIC [9]	MIC [10]	MIC (Escherichia coli EC14)	MIC (Escherichia coli TEM)	MIC [11]	MIC [12]	MIC (Mycoplasma hyorhinis 29E)	MIC [13]	MIC (Mycoplasma synoviae 40A)	MIC (Streptococcus sp. 19F)	further results
CCC1OC(=O)CC(O)C(C)C(OC2OC(C)C(O)C(N(C)C)C2O)C(CCN2CCCCCC2)CC(C)C(=O)C=CC(C)=CC1COC1OC(C)C(O)C(O)C1OC (centres unmarked) [Compound L4, 20-DH-DO-20-(hexahydroazepin-1-yl)lactenocin]	2 µg/mL (≈ 2.38 µM)	> 128 µg/mL	8 µg/mL (≈ 9.51 µM)	16 µg/mL (≈ 19 µM)	32 µg/mL (≈ 38 µM)	2 µg/mL (≈ 2.38 µM)	2 µg/mL (≈ 2.38 µM)	16 µg/mL (≈ 19 µM)	2 µg/mL (≈ 2.38 µM)	16 µg/mL (≈ 19 µM)	2 µg/mL (≈ 2.38 µM)	1 µg/mL (≈ 1.19 µM)	> 128 µg/mL	> 128 µg/mL	1 µg/mL (≈ 1.19 µM)	16 µg/mL (≈ 19 µM)	50 µg/mL (≈ 59.4 µM)	1.56 µg/mL (≈ 1.85 µM)	1.56 µg/mL (≈ 1.85 µM)	6.25 µg/mL (≈ 7.43 µM)	pKa ([5]; Titratable groups): 9.7; pKa [5, 19]: 8; MIC [14]: 12.5 µg/mL (≈ 14.9 µM); MIC [15]: 12.5 µg/mL (≈ 14.9 µM); MIC [16]: 12.5 µg/mL (≈ 14.9 µM); MIC [17]: 25 µg/mL (≈ 29.7 µM); MIC (Staphylococcus aureus): 6.25 µg/mL (≈ 7.43 µM)
CCC1OC(=O)CC(O)C(C)C(OC2OC(C)C(O)C(N(C)C)C2O)C(CCN2CCCC(C(=O)N(CC)CC)C2)CC(C)C(=O)C=CC(C)=CC1COC1OC(C)C(O)C(OC)C1OC (centres unmarked) [Compound D15, 20-DH-DO-20-[3-(N,N-diethylcarbamoyl)piperidin-1-yl]desmycosin]	2 µg/mL (≈ 2.13 µM)	> 128 µg/mL	1 µg/mL (≈ 1.06 µM)	32 µg/mL (≈ 34 µM)	32 µg/mL (≈ 34 µM)	2 µg/mL (≈ 2.13 µM)	2 µg/mL (≈ 2.13 µM)	32 µg/mL (≈ 34 µM)	4 µg/mL (≈ 4.25 µM)	32 µg/mL (≈ 34 µM)	2 µg/mL (≈ 2.13 µM)	1 µg/mL (≈ 1.06 µM)	> 128 µg/mL	64 µg/mL (≈ 68.1 µM)	0.5 µg/mL (≈ 0.532 µM)	32 µg/mL (≈ 34 µM)	> 50 µg/mL	3.12 µg/mL (≈ 3.32 µM)	1.56 µg/mL (≈ 1.66 µM)	12.5 µg/mL (≈ 13.3 µM)	pKa ([5]; Titratable groups): 8.6; pKa [5, 19]: 7.4; MIC [14]: 12.5 µg/mL (≈ 13.3 µM); MIC [15]: 12.5 µg/mL (≈ 13.3 µM); MIC [16]: 3.12 µg/mL (≈ 3.32 µM); MIC [17]: 25 µg/mL (≈ 26.6 µM); MIC (Staphylococcus aureus): 6.25 µg/mL (≈ 6.65 µM)
CCC1OC(=O)CC(O)C(C)C(OC2OC(C)C(O)C(N(C)C)C2O)C(CCN2CCC(N3CCCCC3)CC2)CC(C)C(=O)C=CC(C)=CC1COC1OC(C)C(O)C(OC)C1OC (centres unmarked) [Compound D13, 20-DH-DO-20-[(4-piperidino)piperidin-1-yl]desmycosin]	1 µg/mL (≈ 1.08 µM)	> 128 µg/mL	2 µg/mL (≈ 2.16 µM)	16 µg/mL (≈ 17.3 µM)	2 µg/mL (≈ 2.16 µM)	1 µg/mL (≈ 1.08 µM)	0.5 µg/mL (≈ 0.541 µM)	16 µg/mL (≈ 17.3 µM)	1 µg/mL (≈ 1.08 µM)	8 µg/mL (≈ 8.66 µM)	1 µg/mL (≈ 1.08 µM)	0.25 µg/mL (≈ 0.27 µM)	> 128 µg/mL	> 128 µg/mL	2 µg/mL (≈ 2.16 µM)	2 µg/mL (≈ 2.16 µM)	50 µg/mL (≈ 54.1 µM)	3.12 µg/mL (≈ 3.38 µM)	1.56 µg/mL (≈ 1.69 µM)	6.25 µg/mL (≈ 6.76 µM)	pKa ([5]; Titratable groups): 9.2; pKa [5, 19]: 6; MIC [14]: 12.5 µg/mL (≈ 13.5 µM); MIC [15]: 12.5 µg/mL (≈ 13.5 µM); MIC [16]: 6.25 µg/mL (≈ 6.76 µM); MIC [17]: 12.5 µg/mL (≈ 13.5 µM); MIC (Staphylococcus aureus): 3.12 µg/mL (≈ 3.38 µM)
CCC1OC(=O)CC(O)C(C)C(OC2OC(C)C(O)C(N(C)C)C2O)C(CCN2CCC(O)CC2)CC(C)C(=O)C=CC(C)=CC1COC1OC(C)C(O)C(OC)C1OC (centres unmarked) [Compound D3, 20-DH-DO-20-(4-hydroxypiperidin-1-yl)desmycosin]	8 µg/mL (≈ 9.33 µM)	> 128 µg/mL	8 µg/mL (≈ 9.33 µM)	64 µg/mL (≈ 74.7 µM)	128 µg/mL (≈ 149 µM)	8 µg/mL (≈ 9.33 µM)	8 µg/mL (≈ 9.33 µM)	64 µg/mL (≈ 74.7 µM)	16 µg/mL (≈ 18.7 µM)	64 µg/mL (≈ 74.7 µM)	8 µg/mL (≈ 9.33 µM)	4 µg/mL (≈ 4.67 µM)	> 128 µg/mL	> 128 µg/mL	1 µg/mL (≈ 1.17 µM)	32 µg/mL (≈ 37.3 µM)	50 µg/mL (≈ 58.3 µM)	6.25 µg/mL (≈ 7.29 µM)	6.25 µg/mL (≈ 7.29 µM)	12.5 µg/mL (≈ 14.6 µM)	pKa ([5]; Titratable groups): 8.7; pKa [5, 19]: 7.1; MIC [14]: 50 µg/mL (≈ 58.3 µM); MIC [15]: 50 µg/mL (≈ 58.3 µM); MIC [16]: 25 µg/mL (≈ 29.2 µM); MIC [17]: 50 µg/mL (≈ 58.3 µM); MIC (Staphylococcus aureus): 12.5 µg/mL (≈ 14.6 µM)
CCC1OC(=O)CC(O)C(C)C(OC2OC(C)C(OC3CC(C)(O)C(O)C(C)O3)C(N(C)C)C2O)C(CCN2CCCCCC2)CC(C)C(=O)C=CC(C)=CC1COC1OC(C)C(O)C(O)C1OC (centres unmarked) [Compound M3, 20-DH-DO-20-(hexahydroazepin-1-yl)macrocin]	8 µg/mL (≈ 8.12 µM)	> 128 µg/mL	2 µg/mL (≈ 2.03 µM)	> 128 µg/mL	> 128 µg/mL	8 µg/mL (≈ 8.12 µM)	4 µg/mL (≈ 4.06 µM)	128 µg/mL (≈ 130 µM)	32 µg/mL (≈ 32.5 µM)	128 µg/mL (≈ 130 µM)	8 µg/mL (≈ 8.12 µM)	2 µg/mL (≈ 2.03 µM)	> 128 µg/mL	> 128 µg/mL	4 µg/mL (≈ 4.06 µM)	> 128 µg/mL	> 50 µg/mL	12.5 µg/mL (≈ 12.7 µM)	25 µg/mL (≈ 25.4 µM)	50 µg/mL (≈ 50.7 µM)	pKa ([5]; 66% aqueous DMF, read-out: Titratable groups): 9.4; pKa ([5]; 66% aqueous DMF, read-out: Titratable groups (first value)): 6.91; ED50 ([18]; C203, Oral): > 100 mg/kg; ED50 ([18]; C203, sc, Subcutaneous): > 10 mg/kg; MIC [14]: > 50 µg/mL; MIC [15]: > 50 µg/mL; MIC [16]: 6.25 µg/mL (≈ 6.34 µM); MIC [17]: 50 µg/mL (≈ 50.7 µM); MIC (Staphylococcus aureus): 12.5 µg/mL (≈ 12.7 µM)
